This experiment concerns BDF1 mice, P388 leukemia ip, median survival T/C. Description: NCI In Vivo Anticancer Drug Screen. Data for tumor model P388 Leukemia (intraperitoneal) in B6D2F1 (BDF1) mice. Conditions: endpoint: median survival time, higher = longer survival. In outline:
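In tumour-bearing mice, survival after compound treatment is set against the vehicle group and given as a quotient.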

The mark [1] stands for this setting: dose: 50.0 mg/kg/injection, schedule: Q01DX009 (ip), vehicle: Klucel (hydroxypropylcellulose) (HPC).
Setting [2] is: dose: 100.0 mg/kg/injection, schedule: Q01DX009 (ip), vehicle: Klucel (hydroxypropylcellulose) (HPC).
Where [3] appears, read: dose: 25.0 mg/kg/injection, schedule: Q04DX003 (ip), vehicle: saline with Tween-80.
Where [4] appears, read: dose: 50.0 mg/kg/injection, schedule: Q04DX003 (ip), vehicle: saline with Tween-80.
[5] abbreviates: dose: 200.0 mg/kg/injection, schedule: Q04DX003 (ip), vehicle: other.
Setting [6] is: dose: 400.0 mg/kg/injection, schedule: Q04DX003 (ip), vehicle: other.
The mark [7] stands for this setting: dose: 12.5 mg/kg/injection, schedule: Q01DX009 (ip), vehicle: saline.
Where [8] appears, read: dose: 25.0 mg/kg/injection, schedule: Q01DX009 (ip), vehicle: saline.
[9] abbreviates: dose: 50.0 mg/kg/injection, schedule: Q01DX009 (ip), vehicle: saline.
The mark [10] stands for this setting: dose: 50.0 mg/kg/injection, schedule: Q01DX009 (ip), vehicle: saline with Tween-80.
Where [11] appears, read: dose: 100.0 mg/kg/injection, schedule: Q01DX009 (ip), vehicle: saline with Tween-80.
Setting [12] is: dose: 200.0 mg/kg/injection, schedule: Q01DX009 (ip), vehicle: saline with Tween-80.
Setting [13] is: dose: 100.0 mg/kg/injection, schedule: Q04DX003 (ip), vehicle: saline with Tween-80.
Setting [14] is: dose: 200.0 mg/kg/injection, schedule: Q04DX003 (ip), vehicle: saline with Tween-80.

Values joined by “and” are separate entries in the source; they are usually repeats but may differ in a detail not shown here. Equal values may be shown once. Inconclusive results and toxic doses are left out.

With `COc1ccc(C2c3cc4c(c(OC)c3CC3OCC(=O)C32)OCO4)cc1OC` (stereo unspecified), the T/C reads like this: (dose: 44.8 mg/kg/injection, schedule: Q01DX010 (ip), vehicle: saline) 163 % of control; (dose: 50.0 mg/kg/injection, schedule: Q01DX001 (ip), vehicle: saline) 100 % of control; (dose: 89.5 mg/kg/injection, schedule: Q01DX010 (ip), vehicle: saline) 172 % of control; (dose: 100.0 mg/kg/injection, schedule: Q01DX001 (ip), vehicle: saline) 109 % of control; (dose: 100.0 mg/kg/injection, schedule: Q01DX010 (ip), vehicle: other) 172 % of control; (dose: 179.0 mg/kg/injection, schedule: Q01DX010 (ip), vehicle: saline) 100 % of control. Besides, the T/C is 157 % of control (dose: 200.0 mg/kg/injection, schedule: Q01DX001 (ip), vehicle: other); 104 % of control (dose: 200.0 mg/kg/injection, schedule: Q01DX001 (ip), vehicle: saline); 189 % of control (dose: 400.0 mg/kg/injection, schedule: Q01DX001 (ip), vehicle: other); 122 % of control (dose: 400.0 mg/kg/injection, schedule: Q01DX001 (ip), vehicle: saline).

In the case of `O=[N+]([O-])c1ccc(C2OC2c2ccccc2)cc1` (stereo unspecified), the T/C is, setting by setting: under setting [1], 122 % of control; under setting [2], 111 % of control; (dose: 100.0 mg/kg/injection, schedule: Q04DX003 (ip), vehicle: Klucel (hydroxypropylcellulose) (HPC)) 95 % of control and 120 % of control; (dose: 200.0 mg/kg/injection, schedule: Q01DX009 (ip), vehicle: Klucel (hydroxypropylcellulose) (HPC)) 111 % of control; (dose: 200.0 mg/kg/injection, schedule: Q04DX003 (ip), vehicle: Klucel (hydroxypropylcellulose) (HPC)) 110 % of control; (dose: 400.0 mg/kg/injection, schedule: Q04DX003 (ip), vehicle: Klucel (hydroxypropylcellulose) (HPC)) 91 % of control and 110 % of control.

As for `O=[N+]([O-])c1ccc(N2CCN(CCO)CC2)c2nonc12`, the T/C is 100 % of control (dose: 15.0 mg/kg/injection, schedule: Q01DX009 (ip), vehicle: saline with Tween-80); 97 % of control under setting [3]; 97 % of control (dose: 30.0 mg/kg/injection, schedule: Q01DX009 (ip), vehicle: saline with Tween-80); 96 % of control under setting [4].

As for `COc1cc2c(cc1OC)C1CNCC1C(c1cc(OC)c(OC)c(OC)c1)C2` (stereo unspecified), the T/C is, setting by setting: (dose: 12.5 mg/kg/injection, schedule: Q01DX009 (ip), vehicle: Klucel (hydroxypropylcellulose) (HPC)) 105 % of control; (dose: 25.0 mg/kg/injection, schedule: Q01DX009 (ip), vehicle: Klucel (hydroxypropylcellulose) (HPC)) 100 % of control; under setting [1], 100 % of control; under setting [2], 90 % of control.

As for `O=[N+]([O-])c1ccc2c(c1)CCCC2`, the T/C was 113 % of control (dose: 100.0 mg/kg/injection, schedule: Q01DX009 (ip), vehicle: other); 109 % of control (dose: 100.0 mg/kg/injection, schedule: Q04DX003 (ip), vehicle: other); 118 % of control (dose: 200.0 mg/kg/injection, schedule: Q01DX009 (ip), vehicle: other); 118 % of control under setting [5]; 122 % of control (dose: 400.0 mg/kg/injection, schedule: Q01DX009 (ip), vehicle: other); 113 % of control under setting [6].

`CCNC(=S)N/N=C\C=N/NC(=S)NCC`: the T/C runs as follows: (dose: 75.0 mg/kg/injection, schedule: Q01DX009 (ip), vehicle: saline with Tween-80) 90 % of control; (dose: 300.0 mg/kg/injection, schedule: Q01DX009 (ip), vehicle: saline with Tween-80) 91 % of control.

As for `CCOC(=O)c1[nH]c(C)nc1/N=N/N(C)C`, the T/C under setting [7] is 114 % of control; the T/C under setting [8] was 103 % of control and 121 % of control; the T/C under setting [9] was 111 % of control; the T/C (dose: 200.0 mg/kg/injection, schedule: Q01DX009 (ip), vehicle: saline) is 154 % of control and 180 % of control.

With `COc1ccc(C2=C/C(=C3/C(=O)C=C(C)OC3=O)SS2)cc1`, the T/C under setting [10] is 90 % of control, the T/C under setting [11] is 92 % of control and the T/C under setting [12] is 97 % of control.

In the case of `COC1CC(C)C(OC)C2=CC(=O)C=C(NC(=O)/C(C)=C/C=C\C(C)C(OC(N)=O)/C(C)=C\C(C)C1OC)C2=O` (stereo unspecified), the T/C is 150 % of control (dose: 5.0 mg/kg/injection, schedule: Q01DX009 (ip), vehicle: saline + alcohol) and 171 % of control (dose: 10.0 mg/kg/injection, schedule: Q01DX009 (ip), vehicle: saline + alcohol).

In the case of `COc1cc(OC)c(/C=C/c2ccncn2)c(OC)c1`, the T/C under setting [10] is 101 % of control, the T/C under setting [11] was 108 % of control and the T/C under setting [12] is 117 % of control.

As for `CCOc1nc(N)c(C(N)=O)cc1C#N`, the T/C (dose: 25.0 mg/kg/injection, schedule: Q01DX009 (ip), vehicle: saline with Tween-80) was 105 % of control; the T/C under setting [10] is 110 % of control; the T/C (dose: 66.0 mg/kg/injection, schedule: Q01DX009 (ip), vehicle: saline with Tween-80) was 92 % of control and 110 % of control; the T/C under setting [11] was 150 % of control; the T/C (dose: 150.0 mg/kg/injection, schedule: Q01DX009 (ip), vehicle: saline with Tween-80) was 88 % of control and 95 % of control.

As to `O=S(=O)(Nc1cc(S(=O)(=O)c2ccccc2)c(O)c2ccccc12)c1ccccc1`, the T/C is, setting by setting: (dose: 75.0 mg/kg/injection, schedule: Q01DX001 (ip), vehicle: saline with Tween-80) 90 % of control; (dose: 150.0 mg/kg/injection, schedule: Q01DX001 (ip), vehicle: saline with Tween-80) 90 % of control; (dose: 300.0 mg/kg/injection, schedule: Q01DX001 (ip), vehicle: saline with Tween-80) 100 % of control.

For `CCc1ccc(C(=O)C2CC2)cc1`, the T/C was 104 % of control under setting [13]; 108 % of control (dose: 133.0 mg/kg/injection, schedule: Q01DX008 (ip), vehicle: saline with Tween-80); 116 % of control (dose: 200.0 mg/kg/injection, schedule: Q01DX008 (ip), vehicle: saline with Tween-80); 112 % of control under setting [14]; 115 % of control (dose: 300.0 mg/kg/injection, schedule: Q01DX008 (ip), vehicle: saline with Tween-80); 104 % of control (dose: 400.0 mg/kg/injection, schedule: Q04DX003 (ip), vehicle: saline with Tween-80).

`CCCCCCCCCCCCCCCCSc1ccc(C)cc1`: the T/C was 105 % of control (dose: 5.0 mg/kg/injection, schedule: Q04DX003 (ip), vehicle: saline sonified); 105 % of control (dose: 10.0 mg/kg/injection, schedule: Q04DX003 (ip), vehicle: saline sonified); 100 % of control (dose: 20.0 mg/kg/injection, schedule: Q04DX003 (ip), vehicle: saline sonified); 100 % of control under setting [5]; 100 % of control under setting [6].

As to `CN1C(=O)N(C)C(=O)C(C)(C2(C)C(=O)N(C)C(=O)N(C)C2=O)C1=O`, the T/C by setting is: (dose: 100.0 mg/kg/injection, schedule: Q01DX001 (ip), vehicle: saline with Tween-80) 100 % of control; (dose: 200.0 mg/kg/injection, schedule: Q01DX001 (ip), vehicle: saline with Tween-80) 99 % of control; (dose: 400.0 mg/kg/injection, schedule: Q01DX001 (ip), vehicle: saline with Tween-80) 90 % of control.

With `CC(=N\[O-])/C(C)=N/O.CC(=N\[O-])/C(C)=N/O.CCCc1ccncc1.[Cl-].[Cl-].[Rh+3]`, the T/C under setting [7] is 100 % of control; the T/C under setting [8] is 102 % of control; the T/C under setting [9] is 105 % of control; the T/C (dose: 100.0 mg/kg/injection, schedule: Q01DX009 (ip), vehicle: saline) was 102 % of control.

As for `COC(=O)C1(Cc2ccccc2)CCCC1(C#N)O[Si](C)(C)C` (stereo unspecified), the T/C (dose: 12.5 mg/kg/injection, schedule: Q04DX003 (ip), vehicle: saline with Tween-80) is 92 % of control; the T/C under setting [3] is 106 % of control; the T/C under setting [4] is 97 % of control.

`O=C(/C=C/c1ccc2c(c1)OCO2)c1ccc(Cl)cc1`: the T/C is 100 % of control under setting [4], 100 % of control under setting [13] and 100 % of control under setting [14].
